The source of these data is patent US20250304549A1, “HYDROXYAMIDE DERIVATIVE AND USE THEREOF” (SICHUAN HUIYU PHARMACEUTICAL CO., LTD., priority 2022, published 2025).

Where a name gives a salt, the structure may show the parent alone.

For experiment [1], the system named is NCI-H1417 cells. Nature of the experiment: In vitro cell inhibition assay - H1417 cell proliferation (CellTiter-Glo). The settings on record: Homo sapiens, NCI-H1417, H1417 small cell lung cancer cell proliferation. Type of experiment: cell-based. The method in brief:
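Cells exposed to 8 compound concentrations (5-fold dilutions) in BEGM with 10% FBS for 7 days at 37° C., 5% CO2. Viable cells measured by CellTiter-Glo luminescence; inhibition versus no-inhibitor and no-cell controls, IC50 fitted.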

The target of experiment [2] is pan-HDAC. Nature of the experiment: In vitro enzyme inhibition assay - HDAC (HDAC-Glo I/II), pan-HDAC. The experiment is classed as biochemical. The method in brief:
(§1)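 The compound, serially diluted 5-fold in DMSO across 8 concentrations starting from a 1 mM stock, was made up as 4× working solutions in HDAC buffer. It was then tested in the HDAC-Glo I/II system, and luminescence was recorded. IC50 values came from variable-slope four-parameter curves of inhibition rate.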

Experiment [3] deals with LSD1 (Homo sapiens (Human), UniProt O60341). The experiment can be described thus: In vitro enzyme inhibition assay - LSD1 (HTRF). Type of experiment: biochemical.
The test system of experiment [4] is DU145 cells. The experiment can be described thus: In vitro cell inhibition assay - DU145 cell proliferation (CellTiter-Glo). The conditions noted are these: Homo sapiens, DU-145, Du145 prostate cancer cell proliferation. Type of experiment: cell-based. The protocol:
5. In Vitro Cell Inhibition Assay—DU145 Cell Proliferation
The inhibitory effect of the compounds on cell proliferation was assessed by detecting the number of viable cells using the CellTiter-Glo® reagent. DU145 cells in the logarithmic growth phase were collected and inoculated into transparent bottom 96-well plates at a density 1×10^3 cells per well with 100 μL medium, and incubated at 37° C., 5% CO2 overnight. The compounds were sequentially diluted in a 5-fold concentration gradient with DMSO to obtain 8 different concentrations. These were then diluted with RPMI-640 (containing 10% FBS) cell culture medium to obtain the compound working solution (2×), which was added to the cell supernatant at 100 μL per well. The incubation continued for 6 days at 37° C., 5% CO2. The plate was then removed and equilibrated at room temperature (25° C.) along with the CellTiter-Glo® mixing reagent for 10-30 minutes. After centrifugation, 120 μL of the culture medium was carefully aspirated from each well, and 60 μL of CellTiter-Glo® reagent was added. The cells were thoroughly mixed with the CellTiter-Glo® mixing reagent using a microplate shaker for 2 min. and then incubated at room temperature for 10 min. The 96-well plate was subsequently placed on a multifunctional microplate reader to record the Luminescence values (RLU).
The inhibition rate was calculated using the following formula: […]
Note: ‘Negative’ refers to the group without inhibitors; ‘Blank’ refers to the group without cells.
The IC50 value was determined by fitting the inhibition rate by GraphPad Prism software.

The test system of experiment [5] is NCI-H69 cells. Nature of the experiment: In vitro cell inhibition assay - NCI-H69 cell proliferation (CellTiter-Glo). Type of experiment: cell-based. The conditions noted are these: Homo sapiens, NCI-H69, H69 small cell lung cancer cell proliferation. In outline: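 NCI-H69 cells seeded at 1×10^3 per well overnight, then given 8 compound concentrations (5-fold dilutions) in RPMI-640 with 20% FBS for 7 days at 37° C., 5% CO2. Viable cells by CellTiter-Glo luminescence; IC50 fitted from inhibition rate versus no-inhibitor and no-cell controls.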

Experiment [6] addresses HDAC8 (Homo sapiens (Human), UniProt Q9BY41). The experiment can be described thus: In vitro enzyme inhibition assay - HDAC (HDAC-Glo I/II), HDAC8. The settings on record: read-out: HDAC IC50 (nM) HDAC 8. The experiment is classed as biochemical. In outline:
as §1

Chain of HDAC8 (Q9BY41 whole entry): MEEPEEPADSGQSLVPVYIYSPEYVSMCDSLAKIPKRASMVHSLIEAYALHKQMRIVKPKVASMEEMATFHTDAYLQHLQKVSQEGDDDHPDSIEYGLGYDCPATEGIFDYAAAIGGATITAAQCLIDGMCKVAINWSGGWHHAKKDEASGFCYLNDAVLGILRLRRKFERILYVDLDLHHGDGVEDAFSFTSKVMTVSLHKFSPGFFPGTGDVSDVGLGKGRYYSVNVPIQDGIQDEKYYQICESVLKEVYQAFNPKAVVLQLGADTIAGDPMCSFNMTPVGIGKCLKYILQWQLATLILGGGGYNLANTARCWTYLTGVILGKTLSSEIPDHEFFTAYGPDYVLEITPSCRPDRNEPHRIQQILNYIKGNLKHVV

Take `COc1cc(-c2cnc(N3CCC(NCc4ccc(/C=C/C(=O)NO)cn4)CC3)c(C#N)c2-c2ccc(C#N)c(F)c2)ccc1O` [Example 95, (E)-3-(6-((1-(3-Cyano-4-(4-cyano-3-fluorophenyl)-5-(4-hydroxy-3-methoxyphenyl)pyridin-2-yl)piperidin-4-yl)amino)methyl) pyridin-3-yl)-N-hydroxyacrylamide formate]: the IC50 (usually the concentration needed to halve the response being measured) in experiment [1] came out at 335 nM; in experiment [2], 49 nM; in experiment [3], 63.6 nM; in experiment [4] it was 628 nM; in experiment [5] it was 304 nM; in experiment [6], 87.2 nM.
For the compound `COc1cc(-c2cnc(N3CCC(NCc4cccc(/C=C/C(=O)NO)c4)CC3)c(C#N)c2-c2ccc(C#N)c(F)c2)ccc1O` [Example 98, (E)-3-(3-((1-(3-Cyano-4-(4-cyano-3-fluorophenyl)-5-(4-hydroxy-3-methoxyphenyl)pyridin-2-yl)piperidin-4-yl)amino)methyl) phenyl)-N-hydroxyacrylamide formate], the IC50 in experiment [1] was 707 nM; in experiment [2] it was 394 nM; in experiment [3], 160 nM; in experiment [4] it was 2230 nM; in experiment [5], 528 nM; in experiment [6], 480 nM.
As to `COc1cc(-c2cnc(N3CCC(N(C)Cc4ccc(/C=C/C(=O)NO)cc4)CC3)c(C#N)c2-c2ccc(C#N)c(F)c2)ccc1O` [Example 99, (E)-3-(4-(((1-(3-Cyano-4-(4-cyano-3-fluorophenyl)-5-(4-hydroxy-3-methoxyphenyl)pyridin-2-yl)piperidin-4-yl)(methyl)amino)methyl)phenyl)-N-hydroxyacrylamide formate], the IC50 in experiment [1] was 11.8 nM; in experiment [2], 50.9 nM; in experiment [3], 9.5 nM; in experiment [4], 122 nM; in experiment [5], 97.3 nM; in experiment [6], 120 nM.
Turning to `COc1cc(-c2cnc(N3CCC(NCc4ccc(/C=C/C(=O)NO)cc4)CC3)c(C#N)c2-c2ccc(C#N)c(F)c2)ccc1O` [Example 100, (E)-3-(4-((1-(3-Cyano-4-(4-cyano-3-fluorophenyl)-5-(4-hydroxy-3-methoxyphenyl)pyridin-2-yl)piperidin-4-yl)amino)methyl) phenyl)-N-hydroxyacrylamide hydrochloride], the IC50 in experiment [1] was determined as 118 nM; in experiment [2], 35.5 nM; in experiment [3] it was 49.5 nM; in experiment [4] it was 313 nM; in experiment [5], 104 nM; in experiment [6] it was 36 nM.
In the case of `N#Cc1ccc(-c2c(-c3ccc4c(c3)OCO4)cnc(N3CCC(NCc4ccc(/C=C/C(=O)NO)cc4)CC3)c2C#N)cc1F` [Example 103, (E)-3-(4-(((1-(5-(Benzo[d][1,3]dioxol-5-yl)-3-cyano-4-(4-cyano-3-fluorophenyl)pyridin-2-yl)piperidin-4-yl)amino)methyl)phenyl)-N-hydroxyacrylamide formate], the half-inhibitory concentration (IC50) in experiment [1] was 43.3 nM; in experiment [2] it was 62.3 nM; in experiment [3], 14.2 nM; in experiment [4], 254 nM; in experiment [5], 83.6 nM; in experiment [6], 159 nM.
`COc1ccc(-c2cnc(N3CCC(NCCCc4ccc(C(=O)NO)cc4)CC3)c(C#N)c2-c2ccc(C#N)c(F)c2)cc1O` [Example 107, 4-(3-(3-Cyano-4-(4-cyano-3-fluorophenyl)-5-(3-hydroxy-4-methoxyphenyl)pyridin-2-yl)piperidin-4-yl)amino)propyl)-N-hydroxybenzamide formate]: the IC50 in experiment [1] was 10.4 nM; in experiment [2], 378 nM; in experiment [3], 1.29 nM; in experiment [4], 2330 nM; in experiment [5] it was 1040 nM; in experiment [6], 50.6 nM.
`COc1ccc(-c2cnc(N3CCC(NCc4ccc(C#CC(=O)NO)cc4)CC3)c(C#N)c2-c2ccc(C#N)c(F)c2)cc1O` [Example 109, 3-(4-(1-(3-Cyano-4-(4-cyano-3-fluorophenyl)-5-(3-hydroxy-4-methoxyphenyl)pyridin-2-yl)piperidin-4-yl)amino)methyl) phenyl)-N-hydroxypropiolamide formate]: the IC50 was 2.76 nM in experiment [1]; 657 nM in experiment [2]; 4.19 nM in experiment [3]; 3820 nM in experiment [4]; 411 nM in experiment [5]; 391 nM in experiment [6].
As to `COc1ccc(-c2cnc(N3CCC(NCCNc4ncc(C(=O)NO)cn4)CC3)c(C#N)c2-c2ccc(C#N)c(F)c2)cc1O` [Example 115, 2-(2-(1-(3-Cyano-4-(4-cyano-3-fluorophenyl)-5-(3-hydroxy-4-methoxyphenyl)pyridin-2-yl)piperidin-4-yl)amino)ethyl) amino)-N-hydroxypyrimidine-5-carboxamide formate], the IC50 amounted to 2.25 nM in experiment [1]; 20.6 nM in experiment [2]; 0.16 nM in experiment [3]; 6340 nM in experiment [4]; 3340 nM in experiment [5]; 37.1 nM in experiment [6].
Turning to `COc1ccc(-c2cnc(N3CCC(NCCc4ccc(CC(=O)NO)cc4)CC3)c(C#N)c2-c2ccc(C#N)c(F)c2)cc1O` [Example 120, 2-(4-(2-((1-(3-Cyano-4-(4-cyano-3-fluorophenyl)-5-(3-hydroxy-4-methoxyphenyl)pyridin-2-yl)piperidin-4-yl)amino)ethyl)phenyl)-N-hydroxyacetamide formate], the IC50 was 11.1 nM in experiment [1]; 1310 nM in experiment [2]; 0.33 nM in experiment [3]; 3770 nM in experiment [4]; 938 nM in experiment [5]; 1950 nM in experiment [6].
Consider `COc1ccc(-c2cnc(N3CCC(NCC4CCN(c5ccc(C(=O)NO)cc5)CC4)CC3)c(C#N)c2-c2ccc(C#N)c(F)c2)cc1O` [Example 121, 4-(4-((1-(3-Cyano-4-(4-cyano-3-fluorophenyl)-5-(3-hydroxy-4-methoxyphenyl)pyridin-2-yl)piperidin-4-yl)amino)methyl) piperidin-1-yl)-N-hydroxybenzamide formate], for which the IC50 in experiment [1] turned out to be 15.6 nM; in experiment [2], 404 nM; in experiment [3], 0.35 nM; in experiment [4], 2220 nM; in experiment [5], 127 nM; in experiment [6] it was 17.2 nM.
As to `COc1ccc(-c2cnc(N3CCC(NCCCc4ncc(C(=O)NO)s4)CC3)c(C#N)c2-c2ccc(C#N)c(F)c2)cc1O` [Example 125, 2-(3-(3-Cyano-4-(4-cyano-3-fluorophenyl)-5-(3-hydroxy-4-methoxyphenyl)pyridin-2-yl)piperidin-4-yl)amino)propyl)-N-hydroxythiazole-5-carboxamide formate], the IC50 is 12 nM in experiment [1]; 226 nM in experiment [2]; 0.74 nM in experiment [3]; 3040 nM in experiment [4]; 1950 nM in experiment [5]; 23.4 nM in experiment [6].
On to `COc1ccc(-c2cnc(N3CCC(NCc4ccc(OCC(=O)NO)c(OC)c4)CC3)c(C#N)c2-c2ccc(C#N)c(F)c2)cc1O` [Example 128, 2-(4-((1-(3-Cyano-4-(4-cyano-3-fluorophenyl)-5-(3-hydroxy-4-methoxyphenyl)pyridin-2-yl)piperidin-4-yl)amino)methyl)-2-methoxyphenoxy)-N-hydroxyacetamide formate], for which the IC50 in experiment [1] is 2.01 nM; in experiment [2], 5 nM; in experiment [3], 0.39 nM; in experiment [4] it was 239 nM; in experiment [5], 130 nM; in experiment [6] it was 223 nM.
Consider `N#Cc1ccc(-c2c(-c3ccc(C(F)(F)F)c(O)c3)cnc(N3CCC(NCc4ccc(/C=C/C(=O)NO)cc4)CC3)c2C#N)cc1F` [Example 129, (E)-3-(4-(1-(3-Cyano-4-(4-cyano-3-fluorophenyl)-5-(3-hydroxy-4-(trifluoromethyl)phenyl)pyridin-2-yl)piperidin-4-yl)amino)methyl) phenyl)-N-hydroxyacrylamide formate], for which the IC50 in experiment [1] came to 4.38 nM; in experiment [2] it was 18.2 nM; in experiment [3], 1.47 nM; in experiment [4], 86.9 nM; in experiment [5], 25.8 nM; in experiment [6], 322 nM.
